From US4801712A, “2-Alkyl(or phenyl)thio-6-n-alkylergolines are dopamine D-1 antagonists without D-2 agonist activity” (Eli Lilly and Company, priority 1987, dated 1989)
Structures can show the parent of a compound that is named as a salt.

Legend:
dopamine D-1 receptors = molecular target: T1, dopamine D-1 receptors (Rattus norvegicus, UniProt P18901); assay: Retinal Adenylate Cyclase Assay (dopamine D-1 antagonist assay); format: biochemical, rat (adult male, Sprague-Dawley); details: 10 μM dopamine, rat retina homogenate; for inhibition at 0.1 µM: 0.1 μM drug; for inhibition at 1 µM: 1.0 μM drug; for inhibition at 3 µM: 3.0 μM drug; for inhibition at 10 µM: 10.0 μM drug; for inhibition at 100 µM: 100.0 μM drug
T1 construct: Retinal tissue was removed from the eyeball and homogenized; from tissue; host or cells: rat retina homogenate (adult male Sprague-Dawley)
T1 sequence (P18901 whole entry): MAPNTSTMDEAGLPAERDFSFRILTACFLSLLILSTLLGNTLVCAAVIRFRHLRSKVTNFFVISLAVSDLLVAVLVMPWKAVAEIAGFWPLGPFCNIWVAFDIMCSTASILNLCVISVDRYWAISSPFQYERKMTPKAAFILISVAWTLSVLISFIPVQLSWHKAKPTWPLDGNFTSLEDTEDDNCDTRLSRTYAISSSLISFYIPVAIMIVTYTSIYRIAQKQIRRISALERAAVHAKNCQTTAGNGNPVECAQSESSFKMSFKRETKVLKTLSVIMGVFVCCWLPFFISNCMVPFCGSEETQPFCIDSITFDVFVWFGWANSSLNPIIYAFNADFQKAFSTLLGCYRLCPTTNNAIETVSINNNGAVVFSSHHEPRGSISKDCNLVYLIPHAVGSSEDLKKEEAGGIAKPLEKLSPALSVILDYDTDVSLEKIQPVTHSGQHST
Protocol: The compounds of this invention are dopamine D-1 antagonists without D-2 agonist activity; i.e., they counter the effects of dopamine at D-1 receptors in the brain. The dopamine D-1 antagonist assay was carried out as follows.
Retinal Adenylate Cyclase Assay
Adult male, Sprague-Dawley rats purchased from Charles River Breeding Laboratories (North Wilmington, Mass.) were used in these studies. The rats were decapitated and the eyeballs were removed. The eyeballs were bisected at the juncture of the sclera and iris using capsulotomy scissors. The retina was dissociated from the choroid by irrigation with saline. Retinal tissue was removed from the eyeball and homogenized with Tris-2 mM EGTA (pH 7.4; 1:150 wt.:vol.) using a teflon-glass Dounce homogenizer at a speed of 50 rpm.
The adenylate cyclase assay was performed at an incubation temperature of 30° C. and over a 20-minute reaction period. The reaction mixture contained the following constant ingredients: 2 mM MgSO4, 0.5 mM EGTA, 1 mM IBMX, 0.01 mM GTP, 80 mM Tris-HCl, pH 7.4, 0.5 mM ATP with 3-5×10^6 cpm ^32 P-ATP and 20-25 μg retinal homogenate protein. The reaction mixture also contained various concentrations of the compound tested alone or in the presence of 10 μM dopamine. The reaction was started by the addition of ATP/^32 P-ATP and was stopped by the addition of a solution containing 1% SDS, 20 mM ATP, 0.7 mM cyclic AMP, 80 mM Tris-HCl pH 7.4 and 10^4 cpm ^3 H-cyclic AMP in a total volume of 200 μl. This mixture was heated for 2 minutes at 90° C. to further insure reaction termination. The ^32 P cyclic AMP formed during the reaction was isolated from each sample using the chromatographic method of Solomon (1979). The ^3 H-cyclic AMP was also simultaneously isolated with this procedure. The net ^32 P-cyclic AMP formed was calculated by correcting the final ^32 P cpm for column recovery efficiency delermined by the ^3 H recovery and for background radioactivity determined by the radioactivity in incubates without homogenate. Homogenate protein determinations were made using the BioRad protein assay with bovine serum albumin used at the reference protein. Dopaminergic agonist activity was evaluated based upon percent stimulation over activity without drug. Dopaminergic antagonist activity was estimated based upon the percent inhibition of the response to 10 μM dopamine.
In the Table, column 1 gives the name of the compound, column 2, the concentration of drug in the medium, and column 3, the percent inhibition of 10 μM dopamine.

[1] = test system: prolactin secretion (D-2); assay: Inhibition of prolactin secretion in nonreserpinized rats (test for D-2 dopamine agonist activity); format: in vivo, rat (adult male, Sprague-Dawley); details: 1 hour after treatment, rat serum
Protocol: The drugs of this invention, represented by formulas II and III, are shown to lack D-2 dopamine agonist activity at D-1 antagonist dose levels in a test to determine their ability (or inability) to inhibit the secretion of prolactin in nonrespernized rats. This test was carried out as follows.
Adult male rats of the Sprague-Dawley strain weighing about 200 g. were housed in an air-conditioned room with controlled lighting (14 hours light-10 hours dark) and fed lab chow and water ad libitum. The compound was dissolved in 10 percent ethanol, and injected intraperitoneally at a dose of 1 or 2 mg/kg. The compound was administered to a group of 10 rats, and a control group of 10 intact males received an equivalent amount of 10 percent ethanol. One hour after treatment, all rats were killed by decapitation, and 150 μl aliquots of serum were assayed for prolactin.
The difference between the mean prolactin level of the treated rats and mean prolactin level of the control rats, divided by the mean prolactin level of the control rats, gives the percent change in prolactin secretion attributable to the given dose.

prolactin = details: found by Clemens, Semonsky, Meites and co-workers; cited from earlier work

CSc1[nH]c2cccc3c2c1CC(N(C)C)C3 (racemic) [(±)-2-methylthio-4-dimethyamino-1,3,4,5-tetrahydrobenz[c,d]indole maleate]
inhibition at 0.1 µM (dopamine D-1 receptors): -5.3%
inhibition at 0.3 µM (dopamine D-1 receptors; 0.3 μM drug): -2.2 ± 3.8%
inhibition at 1 µM (dopamine D-1 receptors): 0.9 ± 1.5%
inhibition at 3 µM (dopamine D-1 receptors): 19.1 ± 6.4%
inhibition at 10 µM (dopamine D-1 receptors): 34.7 ± 13%
inhibition at 100 µM (dopamine D-1 receptors): 84 ± 3.3%
inhibition at 1 mg/kg ([1]; ip, 1 mg/kg i.p., not marked as statistically significant, read-out: Percent changes in prolactin (inhibition)): 9%

CC(C)C[C@H]1C(=O)N2CCC[C@H]2[C@]2(O)O[C@](NC(=O)[C@@H]3C=C4c5cccc6[nH]c(Br)c(c56)C[C@H]4N(C)C3)(C(C)C)C(=O)N12 [2-bromo α-ergokryptine]
activity as prolactin inhibitors (prolactin): activity as prolactin inhibitors

CSc1[nH]c2cccc3c2c1C[C@@H]1[C@@H]3CC(CC#N)CN1C (stereo partly drawn) [D-2-methylthio-6-methyl-8-cyanomethylergoline]
inhibition at 2 mg/kg ([1]; ip, 2 mg/kg i.p., * statistically significant at p < 0.05, read-out: Percent changes in prolactin (inhibition)): 68%

CSC[C@@H]1C[C@@H]2c3cccc4[nH]c(SC)c(c34)C[C@H]2N(C)C1 [D-2-methylthio-6-methyl-8β-methylthiomethylergoline]
inhibition at 0.1 µM (dopamine D-1 receptors): -5%
inhibition at 1 µM (dopamine D-1 receptors): 26.4 ± 6%
inhibition at 3 µM (dopamine D-1 receptors): 49 ± 0.8%
inhibition at 10 µM (dopamine D-1 receptors): 72.5 ± 4.8%
inhibition at 30 µM (dopamine D-1 receptors; 30.0 μM drug): 73.8 ± 4.2%
inhibition at 100 µM (dopamine D-1 receptors): 76.6 ± 7.7%
Percent changes in prolactin (stimulation) ([1]; 2 mg/kg i.p., * statistically significant at p < 0.05): 54%

CN1CC(CC#N)C[C@@H]2c3cccc4[nH]cc(c34)C[C@H]21 (stereo partly drawn) [D-6-methyl-8-cyanomethylergoline]
activity as prolactin inhibitors (prolactin): activity as prolactin inhibitors

CC(C)[C@H]1C(=O)N2CCC[C@H]2[C@]2(O)O[C@](NC(=O)[C@@H]3C=C4c5cccc6[nH]cc(c56)C[C@H]4N(C)C3)(C(C)C)C(=O)N12 [Ergocornine]
activity as prolactin inhibitors (prolactin): activity as prolactin inhibitors

CC(C)[C@H]1C(=O)N2CCC[C@H]2[C@]2(O)O[C@](NC(=O)[C@@H]3C[C@@H]4c5cccc6[nH]cc(c56)C[C@H]4N(C)C3)(C(C)C)C(=O)N12 [dihydroergocornine]
activity as prolactin inhibitors (prolactin): activity as prolactin inhibitors
